20 compounds from US9796711B2, “Substituted pyrazolo[3,4-b]pyridin-6-carboxylic acids and method of use” (AbbVie S.àr.l., priority 2015, dated 2017) can be followed below.

Broadly, the EC50 is the concentration that produces a half-maximal response.

The target in assay [1] is T1, ΔF508-CFTR (Homo sapiens, UniProt P13569, DEL508-508).
T1 construct: host or cells: CFBE41o-, doxycycline-inducible
Put plainly: CFTR cell surface levels using HRP-tagged ΔF508-CFTR expressing CFBE cells, in the presence of a co-corrector. Type of assay: cell-based. As to conditions: HRP-tagged ΔF508-CFTR expressing CFBE cells, in the presence of 3 μM co-corrector; for EC50: read-out: EC50. Put shortly:
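Cells were seeded with 0.5 μg/mL doxycycline and held 68 h at 37 °C. Test compounds plus 3 μM co-corrector (final 0.1% DMSO) were then added for 20 h at 33 °C. Washed cells received HRP substrate, and luminescence was normalized between DMSO and 3 μM co-corrector controls.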

In assay [2] the target is T1, ΔF508-CFTR. In words: CFTR cell surface levels using HRP-tagged ΔF508-CFTR expressing CFBE cells, intrinsic corrector capacity. As to conditions: for EC50: read-out: EC50. Type of assay: cell-based. An outline of the steps:
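Here the cells express ΔF508-CFTR with horseradish peroxidase inserted in extracellular loop 4, so only rescued channel at the surface gives luminescent signal. Compounds act on their own, 20 h at the reduced temperature of 33 °C; values are percent activity relative to DMSO and a 3 μM corrector.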

Setting [3] is: HRP-tagged ΔF508-CFTR CFBE41o- cells, compounds alone (intrinsic corrector capacity), 20 hours at 33° C., positive control 3 μM corrector.
Setting [4] is: HRP-tagged ΔF508-CFTR CFBE41o- cells, compounds alone (intrinsic corrector capacity), 20 hours at 33° C.
Where [5] appears, read: HRP-tagged ΔF508-CFTR expressing CFBE cells, intrinsic corrector capacity (no co-corrector), 33° C., 20 hours.

T1 sequence (P13569 with tags, fused parts or gaps DEL508-508): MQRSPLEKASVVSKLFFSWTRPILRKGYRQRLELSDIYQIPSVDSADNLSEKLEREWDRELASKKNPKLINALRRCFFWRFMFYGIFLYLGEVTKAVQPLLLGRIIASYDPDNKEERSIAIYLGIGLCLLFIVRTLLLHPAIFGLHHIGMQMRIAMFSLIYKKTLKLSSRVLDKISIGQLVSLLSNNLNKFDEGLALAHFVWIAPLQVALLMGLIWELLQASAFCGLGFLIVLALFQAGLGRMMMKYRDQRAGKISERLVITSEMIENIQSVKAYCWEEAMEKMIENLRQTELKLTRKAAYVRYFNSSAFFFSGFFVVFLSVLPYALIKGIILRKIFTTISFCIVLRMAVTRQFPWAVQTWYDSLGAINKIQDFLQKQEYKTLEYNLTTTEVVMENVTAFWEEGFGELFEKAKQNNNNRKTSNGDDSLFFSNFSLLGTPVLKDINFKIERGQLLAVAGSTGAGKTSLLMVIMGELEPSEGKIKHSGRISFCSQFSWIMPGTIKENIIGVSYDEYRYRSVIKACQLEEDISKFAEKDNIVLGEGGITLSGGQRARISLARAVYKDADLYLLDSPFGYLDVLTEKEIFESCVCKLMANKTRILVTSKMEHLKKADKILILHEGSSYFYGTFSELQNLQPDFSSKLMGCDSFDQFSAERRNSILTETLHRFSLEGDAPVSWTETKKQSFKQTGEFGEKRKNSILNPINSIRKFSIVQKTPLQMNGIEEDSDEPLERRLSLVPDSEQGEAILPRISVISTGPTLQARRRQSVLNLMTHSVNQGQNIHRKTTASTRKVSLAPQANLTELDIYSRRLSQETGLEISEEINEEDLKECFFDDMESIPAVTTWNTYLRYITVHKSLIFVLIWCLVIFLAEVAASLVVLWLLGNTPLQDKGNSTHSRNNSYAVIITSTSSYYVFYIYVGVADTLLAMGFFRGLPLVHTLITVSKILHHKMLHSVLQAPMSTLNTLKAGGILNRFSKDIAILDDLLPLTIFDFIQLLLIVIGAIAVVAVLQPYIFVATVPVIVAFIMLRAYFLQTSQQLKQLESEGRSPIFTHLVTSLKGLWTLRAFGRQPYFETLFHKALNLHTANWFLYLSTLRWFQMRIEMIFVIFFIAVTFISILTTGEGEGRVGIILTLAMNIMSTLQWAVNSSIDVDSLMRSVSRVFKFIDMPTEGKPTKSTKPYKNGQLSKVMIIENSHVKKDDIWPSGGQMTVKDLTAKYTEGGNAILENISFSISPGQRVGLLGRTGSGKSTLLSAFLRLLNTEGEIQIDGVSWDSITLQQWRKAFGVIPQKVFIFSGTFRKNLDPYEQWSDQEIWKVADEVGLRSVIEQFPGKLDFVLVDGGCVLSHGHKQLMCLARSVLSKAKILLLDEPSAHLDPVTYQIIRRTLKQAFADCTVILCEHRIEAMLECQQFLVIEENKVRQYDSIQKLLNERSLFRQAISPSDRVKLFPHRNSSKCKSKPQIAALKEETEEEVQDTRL

With `CC(C)c1nn(C2CCCCC2)c2nc(C(=O)O)cc(-c3ccc(N4CCOC(C)(C)C4)nc3)c12` [compound 197, 1-cyclohexyl-4-[6-(2,2-dimethylmorpholin-4-yl)pyridin-3-yl]-3-(propan-2-yl)-1H-pyrazolo[3,4-b]pyridine-6-carboxylic acid], the “% Activation” value was found to be 445.2% on ΔF508-CFTR [1] and 219.25% at ΔF508-CFTR [2] (setting [3]). Also, the EC50 on ΔF508-CFTR [1] amounted to 432 nM; at ΔF508-CFTR [2] (setting [4]), 644 nM.

For the compound `CC(C)c1nn(C2CCCCC2)c2nc(C(=O)O)cc(-c3ccn(C)c3)c12` [compound 351, 1-cyclohexyl-4-(1-methyl-1H-pyrrol-3-yl)-3-(propan-2-yl)-1H-pyrazolo[3,4-b]pyridine-6-carboxylic acid], the “% Activation” value at ΔF508-CFTR [1] amounted to 256.6%; on ΔF508-CFTR [2] (setting [3]), 84.055%. Also, the EC50 was 1520 nM on ΔF508-CFTR [1] and 1610 nM at ΔF508-CFTR [2] (setting [4]).

Take `CC(C)(COc1cc(C(=O)O)nc2c1c(C1CCC1)nn2-c1ccccc1)S(C)(=O)=O` [compound 629, 3-cyclobutyl-4-[2-(methanesulfonyl)-2-methylpropoxy]-1-phenyl-1H-pyrazolo[3,4-b]pyridine-6-carboxylic acid]: on ΔF508-CFTR [1], the “% Activation” value came to 252.2% and the EC50 turned out to be 2160 nM. Also, on ΔF508-CFTR [2] (setting [5]), the “% Activation” value came to 94.42% and the EC50 was found to be 3330 nM.

`CC(C)(C)OC(=O)N1CCC(Oc2nn(-c3ccccc3)c3nc(C(=O)O)cc(-c4ccc(N5CCC(C#N)CC5)nc4)c23)CC1` [compound 553, 3-{[1-(tert-butoxycarbonyl)piperidin-4-yl]oxy}-4-[6-(4-cyanopiperidin-1-yl)pyridin-3-yl]-1-phenyl-1H-pyrazolo[3,4-b]pyridine-6-carboxylic acid]: on ΔF508-CFTR [1], the “% Activation” value is 419.05% and the EC50 came out at 119 nM. Besides, on ΔF508-CFTR [2] (setting [5]), the “% Activation” value worked out at 189.7% and the EC50 is 370 nM.

As for `COCC1CN(c2cc(C(=O)O)nc3c2c(C)nn3-c2ccccc2)C1` [compound 294, 4-[3-(methoxymethyl)azetidin-1-yl]-3-methyl-1-phenyl-1H-pyrazolo[3,4-b]pyridine-6-carboxylic acid], the “% Activation” value on ΔF508-CFTR [1] came out at 225.5%; at ΔF508-CFTR [2] (setting [3]) it was 73.275%. For the same compound, the EC50 at ΔF508-CFTR [1] and at ΔF508-CFTR [2] (setting [4]) was 2510 nM each time.

As for `CS(=O)(=O)C1(COc2cc(C(=O)O)nc3c2c(C2CCC2)nn3-c2ccccc2)CCC1` [compound 632, 3-cyclobutyl-4-{[1-(methanesulfonyl)cyclobutyl]methoxy}-1-phenyl-1H-pyrazolo[3,4-b]pyridine-6-carboxylic acid], on ΔF508-CFTR [1], the “% Activation” value came to 129.55% and the EC50 was > 10000 nM. In addition, at ΔF508-CFTR [2] (setting [5]), the “% Activation” value is 18.94% and the EC50 was > 10000 nM.

Regarding `CN(c1ccc(-c2cc(C(=O)O)nc3c2c(C2CCC2)nn3-c2cccc(N3CCCC3)c2)cc1)C1CCOCC1` [compound 251, 3-cyclobutyl-4-{4-[methyl(oxan-4-yl)amino]phenyl}-1-[3-(pyrrolidin-1-yl)phenyl]-1H-pyrazolo[3,4-b]pyridine-6-carboxylic acid], the “% Activation” value at ΔF508-CFTR [1] came out at 577.73%; at ΔF508-CFTR [2] (setting [3]), 389.2%. For the same compound, the EC50 at ΔF508-CFTR [1] came to 353 nM; at ΔF508-CFTR [2] (setting [4]), 438 nM.

With `O=C(O)c1cc(N2CCC(N3CCCC(C(F)(F)F)C3)CC2)c2c(C3CCC3)nn(-c3ccc(F)cc3)c2n1` (centres unmarked) [compound 874, 3-cyclobutyl-1-(4-fluorophenyl)-4-[3-(trifluoromethyl)[1,4′-bipiperidin]-1′-yl]-1H-pyrazolo[3,4-b]pyridine-6-carboxylic acid], at ΔF508-CFTR [1], the “% Activation” value is 608.35% and the EC50 came out at 83 nM. For the same compound, at ΔF508-CFTR [2] (setting [5]), the “% Activation” value is listed as 330.7% and the EC50 is 170 nM.

For `CC(C)c1nn(-c2ccc(F)c(F)c2)c2nc(C(=O)O)cc(-c3ccc(N(C)C4CCOCC4)cc3)c12` [compound 278, 1-(3,4-difluorophenyl)-4-{4-[methyl(oxan-4-yl)amino]phenyl}-3-(propan-2-yl)-1H-pyrazolo[3,4-b]pyridine-6-carboxylic acid], the “% Activation” value on ΔF508-CFTR [1] came to 446.55%; at ΔF508-CFTR [2] (setting [3]), 259.1%. In addition, the EC50 at ΔF508-CFTR [1] came out at 676 nM; at ΔF508-CFTR [2] (setting [4]) it was 991 nM.

Consider `CC(C)(O)c1nn(-c2ccccc2)c2nc(C(=O)O)cc(-c3ccc(N4CCOCC4)cc3)c12` [compound 63, 3-(2-hydroxypropan-2-yl)-4-[4-(morpholin-4-yl)phenyl]-1-phenyl-1H-pyrazolo[3,4-b]pyridine-6-carboxylic acid], for which the “% Activation” value stood at 294.35% on ΔF508-CFTR [1] and 108.18% at ΔF508-CFTR [2] (setting [3]). Moreover, the EC50 at ΔF508-CFTR [1] and at ΔF508-CFTR [2] (setting [4]) was 3340 nM in each case.

Regarding `CCCCOC1CCN(c2cc(C(=O)O)nc3c2c(C(C)C)nn3-c2ccc(F)cc2)CC1` [compound 395, 4-(4-butoxypiperidin-1-yl)-1-(4-fluorophenyl)-3-(propan-2-yl)-1H-pyrazolo[3,4-b]pyridine-6-carboxylic acid], at ΔF508-CFTR [1], the “% Activation” value is reported as 480.35% and the EC50 turned out to be 549 nM. On ΔF508-CFTR [2] (setting [5]), the “% Activation” value is 223.6% and the EC50 is 438 nM.

For `Cc1nn(-c2ccccc2)c2nc(C(=O)O)cc(N3CCC(NS(C)(=O)=O)CC3)c12` [compound 303, 4-{4-[(methanesulfonyl)amino]piperidin-1-yl}-3-methyl-1-phenyl-1H-pyrazolo[3,4-b]pyridine-6-carboxylic acid], the results for the “% Activation” value at ΔF508-CFTR [1] and on ΔF508-CFTR [2] (setting [3]) were 123.5% and 10.878%, respectively. Also, the EC50 on ΔF508-CFTR [1] and on ΔF508-CFTR [2] (setting [4]) was 7500 nM each time.

As to `COCCCN1CCN(c2cc(C(=O)O)nc3c2c(C(C)C)nn3-c2ccc(F)cc2)CC1` [compound 776, 1-(4-fluorophenyl)-4-[4-(3-methoxypropyl)piperazin-1-yl]-3-(propan-2-yl)-1H-pyrazolo[3,4-b]pyridine-6-carboxylic acid], on ΔF508-CFTR [1], the “% Activation” value turned out to be 261.4% and the EC50 came out at 531 nM. On ΔF508-CFTR [2] (setting [5]), the “% Activation” value is on record as 113.2% and the EC50 was determined as 1670 nM.

`Cc1nn(-c2ccc(F)cc2F)c2nc(C(=O)O)cc(-c3ccc(N4CCOCC4)cc3)c12` [compound 105, 1-(2,4-difluorophenyl)-3-methyl-4-[4-(morpholin-4-yl)phenyl]-1H-pyrazolo[3,4-b]pyridine-6-carboxylic acid]: the “% Activation” value at ΔF508-CFTR [1] came to 383.25%; at ΔF508-CFTR [2] (setting [3]) it was 179.05%. Also, the results for the EC50 on ΔF508-CFTR [1] and at ΔF508-CFTR [2] (setting [4]) were 879 nM and 949 nM, respectively.

Turning to `N#CC1CCCN(C2CCN(c3cc(C(=O)O)nc4c3c(C3CCC3)nn4-c3ccc(F)cc3)CC2)C1` (centres unmarked) [compound 871, 4-(3-cyano[1,4′-bipiperidin]-1′-yl)-3-cyclobutyl-1-(4-fluorophenyl)-1H-pyrazolo[3,4-b]pyridine-6-carboxylic acid], on ΔF508-CFTR [1], the “% Activation” value was found to be 681.7% and the EC50 is 156 nM. In addition, at ΔF508-CFTR [2] (setting [5]), the “% Activation” value turned out to be 355.1% and the EC50 is 275 nM.

On to `CN1CCC[C@]12C[C@@H](Oc1cc(C(=O)O)nc3c1c(C1CCC1)nn3-c1ccccc1)C2` [compound 645, 3-cyclobutyl-4-{[(2s,4r)-5-methyl-5-azaspiro[3.4]octan-2-yl]oxy}-1-phenyl-1H-pyrazolo[3,4-b]pyridine-6-carboxylic acid], for which, on ΔF508-CFTR [1], the “% Activation” value came to 270.05% and the EC50 was found to be 409 nM. Further, on ΔF508-CFTR [2] (setting [5]), the “% Activation” value came out at 111.55% and the EC50 was 1070 nM.

Turning to `O=C(O)c1cc(N2CC[C@H](F)C2)c2c(C3CCC3)nn(-c3ccccc3)c2n1` [compound 527, 3-cyclobutyl-4-[(3S)-3-fluoropyrrolidin-1-yl]-1-phenyl-1H-pyrazolo[3,4-b]pyridine-6-carboxylic acid], at ΔF508-CFTR [1], the “% Activation” value is recorded as 291.2% and the EC50 was determined as 1030 nM. Also, on ΔF508-CFTR [2] (setting [5]), the “% Activation” value is 100.1% and the EC50 came out at 1160 nM.

On to `CC(C)c1nn(-c2cccc(N3CCCC3)c2)c2nc(C(=O)O)cc(-c3cnc(N4CCC(C#N)CC4)nc3)c12` [compound 259, 4-[2-(4-cyanopiperidin-1-yl)pyrimidin-5-yl]-3-(propan-2-yl)-1-[3-(pyrrolidin-1-yl)phenyl]-1H-pyrazolo[3,4-b]pyridine-6-carboxylic acid], for which the “% Activation” value at ΔF508-CFTR [1] is given as 673.9%; on ΔF508-CFTR [2] (setting [3]), 438.95%. Moreover, the EC50 on ΔF508-CFTR [1] was 1010 nM; at ΔF508-CFTR [2] (setting [4]) it was 1130 nM.

For the compound `CC1(C)CC(c2nn(-c3ccccc3)c3nc(C(=O)O)cc(-c4ccc(N5CCC(C#N)CC5)nc4)c23)C1` [compound 430, 4-[6-(4-cyanopiperidin-1-yl)pyridin-3-yl]-3-(3,3-dimethylcyclobutyl)-1-phenyl-1H-pyrazolo[3,4-b]pyridine-6-carboxylic acid], on ΔF508-CFTR [1], the “% Activation” value came to 342.17% and the EC50 turned out to be 243 nM. On ΔF508-CFTR [2] (setting [5]), the “% Activation” value was 175.73% and the EC50 came out at 373 nM.

As for `Cc1nn(-c2ccccc2)c2nc(C(=O)O)cc(OCC3CCCCC3)c12` [compound 152, 4-(cyclohexylmethoxy)-3-methyl-1-phenyl-1H-pyrazolo[3,4-b]pyridine-6-carboxylic acid], the “% Activation” value at ΔF508-CFTR [1] was 253.1%; at ΔF508-CFTR [2] (setting [3]) it was 75.36%. Besides, the EC50 on ΔF508-CFTR [1] worked out at 2090 nM; at ΔF508-CFTR [2] (setting [4]) it was 2630 nM.
